# From US8192962B2, “Processes for detecting toxic substances” (Daikin Industries, Ltd., priority 2001, dated 2012)
# System: Genes belonging to other category
# Experiment: DNA chip mRNA expression in yeast, genes belonging to other category (Table 9)
# Assay type: cell-based, Saccharomyces cerevisiae S288C
# Procedure, shortened: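 Chemical exposure: 2 h, log-phase S. cerevisiae S288C, YPD, 25° C., dose set to inhibit growth without death. Profiling: mRNA labeled by reverse transcription with Cy3- or Cy5-dUTP, hybridized to whole-genome array. Output: fluorescence ratio against untreated culture.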
smiles,measurement,setting,value
"CCCCCCCCCCCCc1ccc(S(=O)(=O)[O-])cc1.[Na+] [(17), sodium dodecylbenzosulfonate]",The level of expressed mRNA in the presence of chemical substance/The level of expressed mRNA in the absence of chemical substance,yeast gene YKL008C,1.4
same,The level of expressed mRNA in the presence of chemical substance/The level of expressed mRNA in the absence of chemical substance,yeast gene YKL013C,1.6
same,The level of expressed mRNA in the presence of chemical substance/The level of expressed mRNA in the absence of chemical substance,yeast gene YKL039W,1.2
same,The level of expressed mRNA in the presence of chemical substance/The level of expressed mRNA in the absence of chemical substance,yeast gene YKL096W,0.5
same,The level of expressed mRNA in the presence of chemical substance/The level of expressed mRNA in the absence of chemical substance,yeast gene YKL165C,0.9
same,The level of expressed mRNA in the presence of chemical substance/The level of expressed mRNA in the absence of chemical substance,yeast gene YKL193C,1.2
same,The level of expressed mRNA in the presence of chemical substance/The level of expressed mRNA in the absence of chemical substance,yeast gene YLR120C,3.5
same,The level of expressed mRNA in the presence of chemical substance/The level of expressed mRNA in the absence of chemical substance,yeast gene YLR136C,1.8
same,The level of expressed mRNA in the presence of chemical substance/The level of expressed mRNA in the absence of chemical substance,yeast gene YLR178C,2.0
same,The level of expressed mRNA in the presence of chemical substance/The level of expressed mRNA in the absence of chemical substance,yeast gene YLR250W,1.4
same,The level of expressed mRNA in the presence of chemical substance/The level of expressed mRNA in the absence of chemical substance,yeast gene YLR327C,3.3
same,The level of expressed mRNA in the presence of chemical substance/The level of expressed mRNA in the absence of chemical substance,yeast gene YLR356W,1.1
same,The level of expressed mRNA in the presence of chemical substance/The level of expressed mRNA in the absence of chemical substance,yeast gene YLR362W,1.2
same,The level of expressed mRNA in the presence of chemical substance/The level of expressed mRNA in the absence of chemical substance,yeast gene YLR391W,1.4
same,The level of expressed mRNA in the presence of chemical substance/The level of expressed mRNA in the absence of chemical substance,yeast gene YLR429W,1.0
same,The level of expressed mRNA in the presence of chemical substance/The level of expressed mRNA in the absence of chemical substance,yeast gene YMR004W,0.9
same,The level of expressed mRNA in the presence of chemical substance/The level of expressed mRNA in the absence of chemical substance,yeast gene YMR094W,1.0
same,The level of expressed mRNA in the presence of chemical substance/The level of expressed mRNA in the absence of chemical substance,yeast gene YMR104C,2.8
same,The level of expressed mRNA in the presence of chemical substance/The level of expressed mRNA in the absence of chemical substance,yeast gene YMR219W,1.1
same,The level of expressed mRNA in the presence of chemical substance/The level of expressed mRNA in the absence of chemical substance,yeast gene YMR226C,1.6
same,The level of expressed mRNA in the presence of chemical substance/The level of expressed mRNA in the absence of chemical substance,yeast gene YMR275C,0.9
same,The level of expressed mRNA in the presence of chemical substance/The level of expressed mRNA in the absence of chemical substance,yeast gene YMR276W,1.2
same,The level of expressed mRNA in the presence of chemical substance/The level of expressed mRNA in the absence of chemical substance,yeast gene YMR314W,1.3
same,The level of expressed mRNA in the presence of chemical substance/The level of expressed mRNA in the absence of chemical substance,yeast gene YNL006W,1.0
same,The level of expressed mRNA in the presence of chemical substance/The level of expressed mRNA in the absence of chemical substance,yeast gene YNL007C,1.1
same,The level of expressed mRNA in the presence of chemical substance/The level of expressed mRNA in the absence of chemical substance,yeast gene YNL093W,3.0
same,The level of expressed mRNA in the presence of chemical substance/The level of expressed mRNA in the absence of chemical substance,yeast gene YNL333W,1.4
same,The level of expressed mRNA in the presence of chemical substance/The level of expressed mRNA in the absence of chemical substance,yeast gene YNR010W,1.7
same,The level of expressed mRNA in the presence of chemical substance/The level of expressed mRNA in the absence of chemical substance,yeast gene YNR069C,1.1
same,The level of expressed mRNA in the presence of chemical substance/The level of expressed mRNA in the absence of chemical substance,yeast gene YOL013C,1.1
same,The level of expressed mRNA in the presence of chemical substance/The level of expressed mRNA in the absence of chemical substance,yeast gene YOL164W,1.1
same,The level of expressed mRNA in the presence of chemical substance/The level of expressed mRNA in the absence of chemical substance,yeast gene YOR036W,1.6
same,The level of expressed mRNA in the presence of chemical substance/The level of expressed mRNA in the absence of chemical substance,yeast gene YOR117W,1.4
same,The level of expressed mRNA in the presence of chemical substance/The level of expressed mRNA in the absence of chemical substance,yeast gene YOR124C,1.0
same,The level of expressed mRNA in the presence of chemical substance/The level of expressed mRNA in the absence of chemical substance,yeast gene YOR132W,1.2
same,The level of expressed mRNA in the presence of chemical substance/The level of expressed mRNA in the absence of chemical substance,yeast gene YOR157C,1.2
same,The level of expressed mRNA in the presence of chemical substance/The level of expressed mRNA in the absence of chemical substance,yeast gene YOR181W,1.1
same,The level of expressed mRNA in the presence of chemical substance/The level of expressed mRNA in the absence of chemical substance,yeast gene YOR185C,0.9
same,The level of expressed mRNA in the presence of chemical substance/The level of expressed mRNA in the absence of chemical substance,yeast gene YOR198C,1.1
same,The level of expressed mRNA in the presence of chemical substance/The level of expressed mRNA in the absence of chemical substance,yeast gene YOR259C,0.9
same,The level of expressed mRNA in the presence of chemical substance/The level of expressed mRNA in the absence of chemical substance,yeast gene YOR261C,1.0
same,The level of expressed mRNA in the presence of chemical substance/The level of expressed mRNA in the absence of chemical substance,yeast gene YOR288C,1.5
same,The level of expressed mRNA in the presence of chemical substance/The level of expressed mRNA in the absence of chemical substance,yeast gene YOR355W,0.8
same,The level of expressed mRNA in the presence of chemical substance/The level of expressed mRNA in the absence of chemical substance,yeast gene YOR383C,1.4
same,The level of expressed mRNA in the presence of chemical substance/The level of expressed mRNA in the absence of chemical substance,yeast gene YPL089C,1.5
same,The level of expressed mRNA in the presence of chemical substance/The level of expressed mRNA in the absence of chemical substance,yeast gene YPL109C,1.2
same,The level of expressed mRNA in the presence of chemical substance/The level of expressed mRNA in the absence of chemical substance,yeast gene YPL149W,2.2
same,The level of expressed mRNA in the presence of chemical substance/The level of expressed mRNA in the absence of chemical substance,yeast gene YPL154C,1.6
same,The level of expressed mRNA in the presence of chemical substance/The level of expressed mRNA in the absence of chemical substance,yeast gene YPR103W,1.2
same,The level of expressed mRNA in the presence of chemical substance/The level of expressed mRNA in the absence of chemical substance,yeast gene YPR108W,1.0
